The source of these data is article PMC8125647, “A Validated LC–MS/MS Assay for the Simultaneous Quantification of the FDA-Approved Anticancer Mixture (Encorafenib and Binimetinib): Metabolic Stability Estimation” (Molecules, 2021).

The nature of series [1]: Solubility in DMSO (stock preparation). Format: physicochemical. To be noted: stocks at 1 mg/mL. Here is the method:
We subsequently conducted serial dilution of the stock solutions with the optimized mobile phase to obtain stocks (S1) for ENF and BNB at a 100 µg/mL concentration. The S1 stocks were then serially diluted with mobile phase to obtain stocks (S2) for ENF and BNB at a 10 µg/mL concentration. The AVB stock was dissolved in DMSO to obtain a 100 µg/mL concentration that was then serially diluted with the mobile phase to obtain a stock (S3) of AVB at a 1 µg/mL concentration.

The nature of series [2]: Stability in deactivated HLM matrix under laboratory storage conditions. Format: physicochemical. The method, then:
We evaluated the stability of ENF and BNB in deactivated HLM matrix (1 mg protein/1 mL phosphate buffer) under common laboratory storage conditions. Analyte stability evaluation was performed in different conditions: Room temperature for 8 h, three freeze–thaw cycles, storage at 4 °C for 24 h, and storage at −20 °C for 30 d. Measured values were 96.55–101.64% for ENF and 96.79–100.05% for BNB. Stability data for ENF and BNB are described in Table 4. […] The stability data reveal that the LC–MS/MS method could be successfully used for assaying ENF and BNB without noticeable loss.
The accuracy and precision of the proposed method were investigated inter- and intra-day. The intra- and inter-day accuracy and precision values were calculated according to USFDA guidelines. The stability of ENF and BNB in different conditions, room temperature for 8 h, three freeze–thaw cycles, and storage at 4 °C for 24 h and at −20 °C for 30 d, were examined.

The nature of series [3]: Metabolic stability after incubation with human liver microsomes (LC-MS/MS). As to conditions: for Slope (rate constant of disappearance, ln % remaining vs time): HLM; for half-life at 1 µM / microsomal CLint at 1 µM: human, human liver microsomes, HLM 1 mg/mL; for half-life at 1 µM: NADPH 1 mM, 37 °C, read-out: in vitro t1/2 (half-life); for microsomal CLint at 1 µM: read-out: CLint (intrinsic clearance). It is filed as in vitro ADME. Here is the method: The slope of each regression equation was used to estimate the in vitro t1/2 using the following equations:(1) In vitro t 1/2=ln2/slope (2) In vitro t 1/2=0.693/slope
Similarly, the CLint of ENF and BNB was calculated following the in vitro t1/2 method (15) using the following equation:(3) CLint, =0.693/in vitro t 1/2. µL incubation/mg microsomes (4) CLint, =0.693/in vitro t 1/2. 1000 /1
BNB and ENF concentration during HLM incubation was adjusted to 1 µM to ensure that it was less than the Michaelis–Menten constant and constructed a linear relationship between the ratio of metabolism and incubation time. HLMs (1 mg/mL) in phosphate buffer were used to confirm the absence of nonspecific protein binding. We performed metabolic stability assessments for ENF and BNB by measuring the decrease in ENF and BNB concentrations after incubation with an HLM matrix. One micromole from ENF and BNB was incubated with HLM (1 mg protein in 1 mL phosphate buffer) in triplicate. The metabolic reaction medium was phosphate buffer (pH 7.4) containing 3.3 mM MgCl2. The metabolic mixture was pre-incubated in a 37 °C water bath for 10 min for temperature conditioning. NADPH (1 mM) was used for the initiation of the metabolic reaction, after which 2 mL ACN was used to terminate the reaction at specific time intervals (0, 1, 2.5, 7.5, 15, 30, and 50 min), allowing us to establish metabolic stability curves for ENF and BNB. We conducted this metabolic experiment for ENF alone, BNB alone, and a mixture of ENF and BNB to evaluate the metabolic stability of BNB and ENF alone and combined. The proportion of BNB and ENF remaining either alone or combined was plotted versus incubation time. From this plot, time points in the linear range were selected to plot the natural logarithm (ln) of the remaining proportions of ENF and BNB versus time. The slope of the linear part indicated the rate constant for ENF and BNB disappearance that was used for in vitro t1/2 calculation using equation (1). Then, ENF and BNB CLint values, either alone or combined, were calculated by applying the following Equation (3).
(In general: Liver microsomes are vesicles of endoplasmic reticulum, rich in cytochrome P450 enzymes.)

Setting [4] is: room temperature for 8 h, 15 ng/mL.
The mark [5] stands for this setting: room temperature for 8 h, 150 ng/mL.
Setting [6] is: room temperature for 8 h, 400 ng/mL.
[7] abbreviates: stored at 4 °C for 24 h, 400 ng/mL.
Setting [8] is: stored at −20 °C for 30 days, 15 ng/mL.
[9] abbreviates: stored at −20 °C for 30 days, 150 ng/mL.
Where [10] appears, read: stored at −20 °C for 30 days, 400 ng/mL.
Setting [11] is: three freeze–thaw cycles, 15 ng/mL.
[12] abbreviates: three freeze–thaw cycles, 150 ng/mL.
Where [13] appears, read: three freeze–thaw cycles, 400 ng/mL.
Setting [14] is: pH 7.4, in mixture of ENF and BNB.

The structures appear in SMILES notation. Like-named read-outs stand apart in the source and are kept apart here.

For `C=CC(=O)Nc1cccc(Oc2nc(Nc3ccc(N4CCN(C)CC4)c(F)c3)nc3[nH]ccc23)c1` [AVB, avitinib], the “Solubility in DMSO” value in series [1] was “freely soluble”.

On to `Cn1cnc2c(F)c(Nc3ccc(Br)cc3F)c(C(=O)NOCCO)cc21` [BNB, binimetinib], for which the Recovery % was found to be 99.25% in series [2] (setting [4]); 98.25% in series [2] (setting [5]); 98.85% in series [2] (setting [6]); 100.05% in series [2] (stored at 4 °C for 24 h, 15 ng/mL); 97.59% in series [2] (stored at 4 °C for 24 h, 150 ng/mL); 99.33% in series [2] (setting [7]). Further, the Recovery % was determined as 96.72% in series [2] (setting [8]); 97.72% in series [2] (setting [9]); 98.78% in series [2] (setting [10]); 98.32% in series [2] (setting [11]); 96.79% in series [2] (setting [12]); 97.48% in series [2] (setting [13]). Further, the “Slope (rate constant of disappearance, ln % remaining vs time)” value in series [3] (drug alone) came out at 0.0115; in series [3] (in mixture of ENF and BNB), 0.0119. Also, the half-life at 1 µM in series [3] (pH 7.4, drug alone) was determined as 60.3 min; in series [3] (setting [14]), 58.2 min. For the same compound, the microsomal CLint at 1 µM in series [3] (pH 7.4, drug alone) amounted to 11.5 µL/min/mg; in series [3] (setting [14]), 11.9 µL/min/mg. Moreover, the “Solubility in DMSO” value in series [1] is given as “freely soluble”.

For the compound `COC(=O)N[C@@H](C)CNc1nccc(-c2cn(C(C)C)nc2-c2cc(Cl)cc(NS(C)(=O)=O)c2F)n1` [ENF, encorafenib], in series [2] (room temperature 8 h, three freeze–thaw cycles, 4 °C 24 h, −20 °C 30 d), the “Stability, measured values over all storage conditions” value is recorded as 96.55–101.64%. The Recovery % in series [2] (setting [4]) worked out at 101.64%; in series [2] (setting [5]), 100.55%; in series [2] (setting [6]), 101.46%; in series [2] (setting [7]), 98.21%; in series [2] (setting [8]) it was 100.18%; in series [2] (setting [9]), 96.55%. Moreover, the Recovery % in series [2] (setting [10]) was 98.41%; in series [2] (setting [11]) it was 97.37%; in series [2] (setting [12]), 97.22%; in series [2] (setting [13]) it was 99.66%. Besides, the “Slope (rate constant of disappearance, ln % remaining vs time)” value in series [3] (drug alone) turned out to be 0.0161; in series [3] (in mixture of ENF and BNB) it was 0.0151. Further, the half-life at 1 µM in series [3] (pH 7.4, drug alone) is 43.1 min; in series [3] (setting [14]), 45.9 min. The microsomal CLint at 1 µM in series [3] (pH 7.4, drug alone) was found to be 16.1 µL/min/mg; in series [3] (setting [14]), 15.1 µL/min/mg. Moreover, the “Solubility in DMSO” value in series [1] is recorded as “freely soluble”.
